The results in this text go back to US20090005435A1, “Novel Compounds, Pharmaceutical Compositions Containing Same, and Methods of Use for Same” (priority 2004, published 2009).

The subject of test [1] is Staphylococcus aureus (ATCC #29213). The test is described as follows: Broth microdilution MIC, S. aureus. Type of test: cell-based. The procedure: (§1) A broth microdilution assay is used to assess the antimicrobial activity of the compounds. Compounds are tested at twofold serial dilutions, and the concentration that inhibits visible growth (OD600 at 10% of control) is defined as the MIC. Microorganisms tested include Staphylococcus aureus (ATCC #29213), Enterococcus faecalis (ATCC #29212), Pseudomonas aeruginosa (ATCC #27853), and Escherichia coli (ATCC #25922). The assay is performed in two growth media, Mueller Hinton Broth and Trypticase Soy Broth.
(§2) A blood (Tsoy/5% sheep blood) agar plate is inoculated from frozen stocks maintained in T soy broth containing 10% glycerol and incubated overnight at 37° C. Colonies are suspended in sterile broth so that the turbidity matches the turbidity of a 0.5 McFarland standard. The inoculum is diluted 1:10 in sterile broth (Mueller Hinton or Trypticase soy) and 195 ul is dispensed per well of a 96-well plate. […]
(§3) After 24 hours of incubation at 37° C., plates are read at OD600 on a Molecular Devices SpectraMax Plus Spectrophotometer. Average OD600 values are computed using SOFTmax Pro Software (Molecular Devices) and MIC values are determined by linear regression analysis using Prism version 3.02 (Graph Pad Software, San Diego). […]
In general terms: Broth dilution looks for growth in wells or tubes with falling amounts of substance.

Test [2] has as its system Enterococcus faecalis (ATCC #29212). The test is described as follows: Broth microdilution MIC, E. faecalis. In kind it is cell-based. The procedure:
as §1, §2, §3

Converted amounts (≈) assume the structure as drawn.

As to `C=CCC1(CC=C)C(=O)SC(C)(CCCCCCCC)C1=O` (racemic) [Compound 4, 3,3-Diallyl-5-methyl-5-octyl-thiophene-2,4-dione], the “SA/MH (MIC)” value in test [1] (Mueller Hinton Broth) was “Neg”. Further, the MIC in test [1] (Staphylococcus aureus, ATCC29213, Trypticase Soy Broth, read-out: SA/Tsoy (MIC)) was found to be 98 µg/mL (≈ 304 µM); in test [2] (Enterococcus faecalis, ATCC29212, Trypticase Soy Broth, read-out: EF/Tsoy (MIC)), 169 µg/mL (≈ 524 µM). Further, in test [2] (Mueller Hinton Broth), the “EF/MH (MIC)” value is given as “Neg”.
